Data on 1 compound can be found in patent publication US10450341B2, “Cyclic di-nucleotides as modulators of STING” (GlaxoSmithKline Intellectual Property Development Limited, priority 2014, dated 2019).

The target in this experiment is STING (Homo sapiens, UniProt Q86WV6). The experiment in a line: STING binding assay similar to that described by Li et al.
STING, sequence (Q86WV6 whole entry H232R, species assumed): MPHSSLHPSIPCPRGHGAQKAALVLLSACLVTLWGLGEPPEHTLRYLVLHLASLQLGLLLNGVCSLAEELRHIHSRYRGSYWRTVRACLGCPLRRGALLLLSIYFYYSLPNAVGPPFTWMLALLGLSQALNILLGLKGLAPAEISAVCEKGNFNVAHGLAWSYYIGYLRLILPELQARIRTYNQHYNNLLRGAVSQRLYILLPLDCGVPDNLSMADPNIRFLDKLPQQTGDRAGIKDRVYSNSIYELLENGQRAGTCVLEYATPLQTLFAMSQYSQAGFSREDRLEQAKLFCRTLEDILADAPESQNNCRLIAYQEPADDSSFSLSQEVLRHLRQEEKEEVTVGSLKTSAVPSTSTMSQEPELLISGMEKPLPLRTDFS

As usually defined, the IC50 is the point on the concentration scale where inhibition reaches its midpoint. For the compound `Nc1nc2c(ncn2[C@@H]2C[C@@H]3COP(=O)(O)O[C@H]4[C@@H](F)[C@H](n5cnc6c(N)ncnc65)O[C@@H]4COP(=O)(O)O[C@@H]2[C@@H]3O)c(=O)[nH]1` [Example 4, (1S,6R,8R,9R,10R,15R,17R,18R)-17-(2-Amino-6-oxo-6,9-dihydro-1H-purin-9-yl)-8-(6-amino-9H-purin-9-yl)-9-fluoro-3,12,18-trihydroxy-2,4,7,11,13-pentaoxa-3λ^5,12λ^5-diphosphatricyclo[13.2.1.0^6,10]octadecane-3,12-dione], the IC50 is less than 100 µM.
